26 molecules from patent publication US9371320B2, “Heterocyclic compound” (TAKEDA PHARMACEUTICAL COMPANY LIMITED, priority 2012, dated 2016) can be followed below.

In one experiment the target is T1, Tyk2 (Homo sapiens, UniProt P29597).
T1 construct: purchased Invitrogen
Nature of the experiment: Tyk2 enzyme inhibition test (LANCE method). The experiment is classed as biochemical. Conditions: test compound 1 μM; for inhibition at 1 µM: read-out: Inhibitory rate (%) Tyk2 1 μM. In outline:
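LANCE TR-FRET read-out (ex 340/em 665 nm, 100 μs delay) of ULight-JAK1 phosphorylation, with no-enzyme wells as 100% inhibition. Reaction run 1 h at room temperature in pH 7.5 HEPES buffer; enzyme 375 ng/mL, substrate 300 nM and ATP 30 μM are solution concentrations before mixing.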

The next experiment addresses T2, JAK1 (Homo sapiens, UniProt P23458).
T2 construct: purchased Invitrogen
Nature of the experiment: JAK1 enzyme inhibition test (LANCE method). The class given is biochemical. The conditions noted are these: for inhibition at 1 µM: test compound 1 μM, read-out: Inhibitory rate (%) JAK1 1 μM; for inhibition at 10 µM / Inhibitory rate (%) JAK1 10 μM: test compound 10 μM (Ex. 182-220), beside Tyk2 1 μM; for inhibition at 10 µM: read-out: Inhibitory rate (%) JAK1 10 μM. In outline: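 Reactions ran 1 h at room temperature in HEPES pH 7.5/MgCl2 buffer, with ATP solution at 150 μM and JAK1 and ULight peptide solutions at 187.5 ng/mL and 300 nM. Reactions were stopped with EDTA, and phosphorylation was read by Eu antibody time-resolved fluorescence at 665 nm. Inhibition was scaled to a no-enzyme control as 100%.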

T2 sequence (P23458 whole entry): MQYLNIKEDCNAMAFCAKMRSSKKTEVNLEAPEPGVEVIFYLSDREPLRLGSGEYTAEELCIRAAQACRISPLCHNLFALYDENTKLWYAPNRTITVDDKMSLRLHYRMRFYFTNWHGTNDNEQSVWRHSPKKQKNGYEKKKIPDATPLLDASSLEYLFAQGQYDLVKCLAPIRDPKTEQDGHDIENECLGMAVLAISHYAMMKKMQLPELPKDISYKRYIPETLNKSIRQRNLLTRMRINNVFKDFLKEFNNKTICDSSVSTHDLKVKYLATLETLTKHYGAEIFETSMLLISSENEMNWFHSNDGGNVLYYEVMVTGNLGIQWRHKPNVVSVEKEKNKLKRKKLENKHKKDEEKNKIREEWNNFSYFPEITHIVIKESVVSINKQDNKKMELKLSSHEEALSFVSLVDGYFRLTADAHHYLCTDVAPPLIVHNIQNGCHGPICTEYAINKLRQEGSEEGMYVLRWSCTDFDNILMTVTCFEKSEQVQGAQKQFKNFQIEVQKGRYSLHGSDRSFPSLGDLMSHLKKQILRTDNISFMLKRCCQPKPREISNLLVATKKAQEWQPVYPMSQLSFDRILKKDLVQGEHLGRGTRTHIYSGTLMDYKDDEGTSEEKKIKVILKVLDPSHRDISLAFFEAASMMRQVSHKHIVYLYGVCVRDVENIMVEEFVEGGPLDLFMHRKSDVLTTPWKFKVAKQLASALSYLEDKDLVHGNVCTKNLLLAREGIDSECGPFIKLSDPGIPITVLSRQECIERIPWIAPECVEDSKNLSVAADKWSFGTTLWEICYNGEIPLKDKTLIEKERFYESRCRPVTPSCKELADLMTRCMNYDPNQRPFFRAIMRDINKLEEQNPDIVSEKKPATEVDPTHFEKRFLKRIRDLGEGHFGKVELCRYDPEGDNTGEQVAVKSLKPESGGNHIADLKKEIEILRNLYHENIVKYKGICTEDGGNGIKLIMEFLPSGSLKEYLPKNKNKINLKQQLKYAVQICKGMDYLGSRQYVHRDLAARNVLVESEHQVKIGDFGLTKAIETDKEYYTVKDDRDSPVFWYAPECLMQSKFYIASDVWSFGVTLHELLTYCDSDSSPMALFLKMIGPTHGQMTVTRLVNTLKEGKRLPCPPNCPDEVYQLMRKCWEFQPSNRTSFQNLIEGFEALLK
T1 sequence (P29597 whole entry): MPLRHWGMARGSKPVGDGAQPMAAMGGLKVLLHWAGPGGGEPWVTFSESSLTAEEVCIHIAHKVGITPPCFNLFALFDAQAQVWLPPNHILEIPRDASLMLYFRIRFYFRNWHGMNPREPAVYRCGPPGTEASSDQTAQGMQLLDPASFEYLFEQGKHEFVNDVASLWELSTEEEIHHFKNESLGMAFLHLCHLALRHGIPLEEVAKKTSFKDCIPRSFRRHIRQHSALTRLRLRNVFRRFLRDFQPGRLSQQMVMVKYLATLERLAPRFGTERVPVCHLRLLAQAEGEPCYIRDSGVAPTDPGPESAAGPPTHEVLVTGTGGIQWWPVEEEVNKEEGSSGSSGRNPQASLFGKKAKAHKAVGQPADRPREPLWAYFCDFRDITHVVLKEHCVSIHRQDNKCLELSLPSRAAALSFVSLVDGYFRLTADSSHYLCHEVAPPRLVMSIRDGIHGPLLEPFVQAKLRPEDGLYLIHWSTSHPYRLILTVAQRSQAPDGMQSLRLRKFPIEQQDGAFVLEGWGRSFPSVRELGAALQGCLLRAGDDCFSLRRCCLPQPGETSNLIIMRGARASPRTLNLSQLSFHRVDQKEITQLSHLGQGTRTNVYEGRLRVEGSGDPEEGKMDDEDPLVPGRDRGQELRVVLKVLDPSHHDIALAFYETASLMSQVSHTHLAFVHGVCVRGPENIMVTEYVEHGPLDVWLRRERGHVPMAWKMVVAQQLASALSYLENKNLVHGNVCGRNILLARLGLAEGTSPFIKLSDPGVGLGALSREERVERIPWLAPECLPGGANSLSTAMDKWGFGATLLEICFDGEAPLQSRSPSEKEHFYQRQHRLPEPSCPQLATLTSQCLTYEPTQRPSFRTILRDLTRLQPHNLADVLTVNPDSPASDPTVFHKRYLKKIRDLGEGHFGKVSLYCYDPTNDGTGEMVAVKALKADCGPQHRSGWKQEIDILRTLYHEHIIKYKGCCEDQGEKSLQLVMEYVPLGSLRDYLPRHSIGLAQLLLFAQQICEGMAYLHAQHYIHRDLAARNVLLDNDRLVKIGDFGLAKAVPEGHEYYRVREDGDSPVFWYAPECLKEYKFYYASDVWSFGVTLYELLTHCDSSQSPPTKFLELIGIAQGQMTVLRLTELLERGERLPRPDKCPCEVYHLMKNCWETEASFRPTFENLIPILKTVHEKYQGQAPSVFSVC

`N#Cc1c[nH]c(=O)c2c(Nc3cccc(C(N)=O)c3)cn(C3CCCC3)c12` [Example 178, 3-((7-cyano-1-cyclopentyl-4-oxo-4,5-dihydro-1H-pyrrolo[3,2-c]pyridin-3-yl)amino)benzamide]: the inhibition at 1 µM at Tyk2 came to 99%; on JAK1, 93%.

As for `O=c1[nH]ccc2c1c(-c1ccc(N3CCOCC3)cc1)nn2-c1c(F)cccc1F` [Example 179, 1-(2,6-difluorophenyl)-3-(4-(morpholin-4-yl)phenyl)-1,5-dihydro-4H-pyrazolo[4,3-c]pyridin-4-one], the inhibition at 1 µM was 100% on Tyk2 and 94% at JAK1.

Turning to `CNC(=O)c1ccc(-c2nn(-c3c(F)cccc3F)c3cc[nH]c(=O)c23)cc1` [Example 180, 4-(1-(2,6-difluorophenyl)-4-oxo-4,5-dihydro-1H-pyrazolo[4,3-c]pyridin-3-yl)-N-methylbenzamide], the results for the inhibition at 1 µM at Tyk2 and at JAK1 were 101% and 92%, respectively.

With `NC(=O)Cc1ccc(-c2nn(C3CCCC3)c3cc[nH]c(=O)c23)cc1` [Example 182, 2-(4-(1-cyclopentyl-4-oxo-4,5-dihydro-1H-pyrazolo[4,3-c]pyridin-3-yl)phenyl)acetamide], the inhibition at 1 µM at Tyk2 turned out to be 98%. Besides, the inhibition at 10 µM on JAK1 worked out at 98%.

As to `NC(=O)c1cc(-c2nn([C@H]3CC[C@H](O)CC3)c3cc[nH]c(=O)c23)cs1` [Example 183, 4-(1-(trans-4-hydroxycyclohexyl)-4-oxo-4,5-dihydro-1H-pyrazolo[4,3-c]pyridin-3-yl)thiophene-2-carboxamide], at Tyk2, the inhibition at 1 µM came to 100%. For the same molecule, the inhibition at 10 µM at JAK1 came out at 100%.

Turning to `NC(=O)c1cc(-c2nn([C@H]3CC[C@@H](O)CC3)c3cc[nH]c(=O)c23)cs1` [Example 184, 4-(1-(cis-4-hydroxycyclohexyl)-4-oxo-4,5-dihydro-1H-pyrazolo[4,3-c]pyridin-3-yl)thiophene-2-carboxamide], on Tyk2, the inhibition at 1 µM came out at 99%. Besides, the inhibition at 10 µM on JAK1 came out at 100%.

For the molecule `O=c1[nH]cc(Cl)c2c1c(-c1ccc(CN3CCOCC3)cc1)nn2-c1c(F)cccc1F` [Example 185, 7-chloro-1-(2,6-difluorophenyl)-3-(4-(morpholin-4-ylmethyl)phenyl)-1,5-dihydro-4H-pyrazolo[4,3-c]pyridin-4-one], the inhibition at 1 µM at Tyk2 was found to be 99%. At JAK1, the inhibition at 10 µM is 72%.

Consider `O=C1OCCN1Cc1ccc(-c2nn(-c3c(F)cccc3F)c3c(Cl)c[nH]c(=O)c23)cc1` [Example 186, 7-chloro-1-(2,6-difluorophenyl)-3-(4-((2-oxo-1,3-oxazolidin-3-yl)methyl)phenyl)-1,5-dihydro-4H-pyrazolo[4,3-c]pyridin-4-one], for which the inhibition at 1 µM at Tyk2 amounted to 99%. Moreover, at JAK1, the inhibition at 10 µM stood at 82%.

Regarding `CC(C)(C#N)c1ccc(-c2nn(-c3c(F)cccc3F)c3c(Cl)c[nH]c(=O)c23)cc1` [Example 187, 2-(4-(7-chloro-1-(2,6-difluorophenyl)-4-oxo-4,5-dihydro-1H-pyrazolo[4,3-c]pyridin-3-yl)phenyl)-2-methylpropanenitrile], on Tyk2, the inhibition at 1 µM worked out at 98%. Moreover, on JAK1, the inhibition at 10 µM amounted to 83%.

Regarding `CC(C)(C(N)=O)c1ccc(-c2nn(-c3c(F)cccc3F)c3c(Cl)c[nH]c(=O)c23)cc1` [Example 188, 2-(4-(7-chloro-1-(2,6-difluorophenyl)-4-oxo-4,5-dihydro-1H-pyrazolo[4,3-c]pyridin-3-yl)phenyl)-2-methylpropanamide], at Tyk2, the inhibition at 1 µM was 100%. Also, the inhibition at 10 µM at JAK1 was 84%.

As to `Cn1cc(-c2nn(-c3c(F)cccc3F)c3c(Cl)c[nH]c(=O)c23)cn1` [Example 189, 7-chloro-1-(2,6-difluorophenyl)-3-(1-methyl-1H-pyrazoI-4-yl)-1,5-dihydro-4H-pyrazolo[4,3-c]pyridin-4-one], on Tyk2, the inhibition at 1 µM stood at 100%. Further, the inhibition at 10 µM on JAK1 was 92%.

Take `NC(=O)Cn1cc(-c2nn(-c3c(F)cccc3F)c3c(Cl)c[nH]c(=O)c23)cn1` [Example 190, 2-(4-(7-chloro-1-(2,6-difluorophenyl)-4-oxo-4,5-dihydro-1H-pyrazolo[4,3-c]pyridin-3-yl)-1H-pyrazol-1-yl)acetamide]: the inhibition at 1 µM on Tyk2 was 99%. Also, the inhibition at 10 µM on JAK1 amounted to 81%.

As to `N#CCNC(=O)c1cc(-c2nn(-c3c(F)cccc3F)c3c(Cl)c[nH]c(=O)c23)cs1` [Example 191, 4-(7-chloro-1-(2,6-difluorophenyl)-4-oxo-4,5-dihydro-1H-pyrazolo[4,3-c]pyridin-3-yl)-N-(cyanomethyl)thiophene-2-carboxamide], the inhibition at 1 µM at Tyk2 came to 100%. Further, on JAK1, the inhibition at 10 µM was found to be 98%.

Consider `O=C(c1cc(-c2nn(-c3c(F)cccc3F)c3c(Cl)c[nH]c(=O)c23)cs1)N1CCOCC1` [Example 192, 7-chloro-1-(2,6-difluorophenyl)-3-(5-(morpholin-4-ylcarbonyl)-3-thienyl)-1,5-dihydro-4H-pyrazolo[4,3-c]pyridin-4-one], for which the inhibition at 1 µM at Tyk2 was found to be 99%. Moreover, the inhibition at 10 µM on JAK1 was determined as 94%.

For the molecule `O=C(NN1CCOCC1)c1cc(-c2nn(-c3c(F)cccc3F)c3c(Cl)c[nH]c(=O)c23)cs1` [Example 193, 4-(7-chloro-1-(2,6-difluorophenyl)-4-oxo-4,5-dihydro-1H-pyrazolo[4,3-c]pyridin-3-yl)-N-(morpholin-4-yl)thiophene-2-carboxamide], the inhibition at 1 µM on Tyk2 was determined as 100%. For the same molecule, at JAK1, the inhibition at 10 µM turned out to be 99%.

For the molecule `CNC(=O)c1ccc(-c2nn(-c3c(F)cccc3F)c3c(Cl)c[nH]c(=O)c23)cc1` [Example 194, 4-(7-chloro-1-(2,6-difluorophenyl)-4-oxo-4,5-dihydro-1H-pyrazolo[4,3-c]pyridin-3-yl)-N-methylbenzamide], the inhibition at 1 µM on Tyk2 amounted to 100%. Besides, on JAK1, the inhibition at 10 µM came to 67%.

Take `O=C1CCCN1c1ccc(-c2nn(-c3c(F)cccc3F)c3c(Cl)c[nH]c(=O)c23)cc1` [Example 195, 7-chloro-1-(2,6-difluorophenyl)-3-(4-(2-oxopyrrolidin-1-yl)phenyl)-1,5-dihydro-4H-pyrazolo[4,3-c]pyridin-4-one]: the inhibition at 1 µM at Tyk2 turned out to be 100%. In addition, the inhibition at 10 µM at JAK1 was determined as 79%.

Regarding `CC1(O)CCC(n2nc(-c3ccc(S(N)(=O)=O)cc3)c3c(=O)[nH]ccc32)CC1` (stereo not shown) [Example 196, 4-(1-(4-hydroxy-4-methylcyclohexyl)-4-oxo-4,5-dihydro-1H-pyrazolo[4,3-c]pyridin-3-yl)benzenesulfonamide], the inhibition at 1 µM on Tyk2 was 100%. Further, the inhibition at 10 µM at JAK1 worked out at 100%.

`CC1(O)CCC(n2nc(-c3ccc(S(N)(=O)=O)cc3)c3c(=O)[nH]ccc32)CC1` (stereo not shown) [Example 197, 4-(1-(4-hydroxy-4-methylcyclohexyl)-4-oxo-4,5-dihydro-1H-pyrazolo[4,3-c]pyridin-3-yl)benzenesulfonamide]: the “Inhibitory rate (%) Tyk2 1 μM” value on Tyk2 was determined as 98%. Further, the “Inhibitory rate (%) JAK1 10 μM” value at JAK1 worked out at 99%.

For `CC1(O)CCC(n2nc(-c3csc(C(N)=O)c3)c3c(=O)[nH]ccc32)CC1` (stereo not shown) [Example 198, 4-(1-(4-hydroxy-4-methylcyclohexyl)-4-oxo-4,5-dihydro-1H-pyrazolo[4,3-c]pyridin-3-yl)thiophene-2-carboxamide], the inhibition at 1 µM at Tyk2 was 100%. Also, the inhibition at 10 µM at JAK1 was 100%.

`CC1(O)CCC(n2nc(-c3csc(C(N)=O)c3)c3c(=O)[nH]ccc32)CC1` (stereo not shown) [Example 199, 4-(1-(4-hydroxy-4-methylcyclohexyl)-4-oxo-4,5-dihydro-1H-pyrazolo[4,3-c]pyridin-3-yl)thiophene-2-carboxamide]: the “Inhibitory rate (%) Tyk2 1 μM” value at Tyk2 amounted to 100%. Also, on JAK1, the “Inhibitory rate (%) JAK1 10 μM” value is on record as 99%.

On to `N#Cc1cc(-c2nn(-c3c(F)cccc3F)c3c(Cl)c[nH]c(=O)c23)ccc1N1CCOCC1` [Example 200, 5-(7-chloro-1-(2,6-difluorophenyl)-4-oxo-4,5-dihydro-1H-pyrazolo[4,3-c]pyridin-3-yl)-2-(morpholin-4-yl)benzonitrile], for which the inhibition at 1 µM on Tyk2 was determined as 98%. The inhibition at 10 µM on JAK1 is 22%.

As for `N#Cc1ccc(-c2nn(C3CCCC3)c3cc[nH]c(=O)c23)cc1` [Example 201, 4-(1-cyclopentyl-4-oxo-4,5-dihydro-1H-pyrazolo[4,3-c]pyridin-3-yl)benzonitrile], the inhibition at 1 µM on Tyk2 was 97%. Besides, the inhibition at 10 µM on JAK1 amounted to 96%.

`N#Cc1cccc(-c2nn(C3CCCC3)c3cc[nH]c(=O)c23)c1` [Example 202, 3-(1-cyclopentyl-4-oxo-4,5-dihydro-1H-pyrazolo[4,3-c]pyridin-3-yl)benzonitrile]: the inhibition at 1 µM on Tyk2 was found to be 87%. The inhibition at 10 µM at JAK1 stood at 80%.

Consider `O=c1[nH]cc(Cl)c2c1c(-c1csc(CN3CCOCC3)c1)nn2-c1c(F)cccc1F` [Example 203, 7-chloro-1-(2,6-difluorophenyl)-3-(5-(morpholin-4-ylmethyl)-3-thienyl)-1,5-dihydro-4H-pyrazolo[4,3-c]pyridin-4-one], for which the inhibition at 1 µM at Tyk2 stood at 100%. At JAK1, the inhibition at 10 µM came to 81%.

Take `O=c1[nH]ccc2c1c(-c1cn[nH]c1)nn2C1CCCC1` [Example 204, 1-cyclopentyl-3-(1H-pyrazol-4-yl)-1,5-dihydro-4H-pyrazolo[4,3-c]pyridin-4-one]: the inhibition at 1 µM on Tyk2 turned out to be 98%. Also, on JAK1, the inhibition at 10 µM is 98%.
